Assay results as given in US12144789B2, “Pharmaceutical composition exhibiting anti-tumor activity, method for treating patient suffering from cancer and method for inhibiting tumor growth” (Gongwin Biopharm Co., Ltd., priority 2016, dated 2024).
Like-named read-outs stand apart in the source and are kept apart here.

What was measured:
[1] = test system: Human gingival fibroblast (HGF) cells; assay type: cell-based
Procedure: (§1) To examine the effects of PTS on cell viability, Tca-8113 and HGF cells were treated with different doses of PTS for 1 h. The 3-(4,5-dimethylthiazol-2-yl)-2,5-diphenyltetrazolium bromide (MTT) assay is conducted by treating Tca-8113 and human gingival fibroblast (HGF) cells with 2.5 μmol/l, 5 μmol/l, 10 μmol/l, 20 μmol/l, 40 μmol/l and 80 μmol/l PTS for 1 h, respectively. The effects of PTS on cell viability were assessed using MTT 72 h after treatment. […] PTS induces more significant cell death in […] cells than that in normal gingival fibroblasts. Taking the 10 μmol/l […] treatment for example, about 50% Tca-8113 cells were suppressed while only 10% […] cells were suppressed, so the suppression ratio (cancer cell suppression %/normal cell suppression %) is 5. Similarly, the suppression ratios of 20 μmol/l, 40 μmol/l and 80 μmol/l are 2.6, 1.8, 1.05.

[2] = cited from earlier work
Tca-8113 cells [3] = assay: Morphologic changes by phase-contrast microscope; assay type: cell-based; details: 40 μmol/l PTS for 1 h
Procedure: Next, in observing the morphological feature of the treated cells, Tca-8113 and HGF cells were treated with 40 μmol/l PTS or DMSO (control vehicle) for 1 h; the morphologic changes were observed using a phase-contrast microscope.

[4] = test system: mitochondrial ATP biosynthesis in Tca-8113 cells; assay: ATP biosynthesis by chemiluminescence; assay type: cell-based; details: 40 μmol/l PTS
Procedure: (§2) Increased lysosomal permeability is reported to induce mitochondrial damage and the release of pro-apoptotic factors. The applicant therefore investigated the cytosolic cytochrome c released from the mitochondria after PTS treatment. […] Inhibition of ATP biosynthesis is observed when Tca-8113 cells were treated with 40 μmol/l PTS or DMSO for […]. The effects of PTS on ATP biosynthesis were assessed by measuring chemiluminescence. […] 40 μmol/l PTS treatment for 1 h attenuated ATP biosynthesis to 65.8%.

cytochrome c = assay: Western blot analysis of cytosolic cytochrome c; assay type: cell-based; details: Tca-8113 cells, 40 μmol/l and 80 μmol/l PTS, 1 h
Procedure: as §2

Tca-8113 cells [5] = assay: cells; assay type: cell-based; details: 1 h
Procedure: Next, cancer cell death is measured by using flow cytometric analysis. Tca-8113 cells were treated with 40 μmol/l and 80 μmol/l PTS or DMSO (control) for 1 h. Cells were stained with Annexin V− FITC and propidium iodide (PI), followed by flow cytometric analysis.

[6] = test system: Human gingival fibroblast (HGF) cells; assay type: cell-based; details: 10 min
Procedure: (§3) In assessing the accumulation of intracellular PTS between Tca-8113 cells and normal cells after different doses and incubation periods of PTS treatment, Tca-8113 and Human gingival fibroblast (HGF) cells were treated 2.5 μmol/l˜80 μmol/l PTS for different periods. Please see FIG. 2A and FIG. 2B, which show the plots of intracellular PTS concentration after 2.5 μmol/l˜80 μmol/l PTS treatment for different periods of time in Tca-8113 and HGF cell, respectively. […] However, the accumulated intracellular PTS concentration in […] cells is much higher than that in HGF cells. […] The intracellular PTS concentration variation between the Tca-8113 cells and HGF cells can range from 5× (20 μmol/l), 8× (40 μmol/l) to 12 (80 μmol/l).

Tca-8113 cells [7] = assay: Lactate dehydrogenase (LDH) release assay (necrosis); assay type: cell-based; details: 80 μmol/l PTS, 1 h
Procedure: Furthermore, in studying PTS-induced necrosis, LDH release assay is used. LDH is a cytosolic enzyme that can be released into culture medium upon damage of the plasma membrane. Necrosis, which results in an early loss of plasma membrane integrity, can be determined using the LDH release assay. In LDH release assay, Tca-8113 cells were treated with 80 μmol/l PTS or DMSO for 1 h; PTS-induced necrosis was determined using the lactate dehydrogenase (LDH) release assay.

Tca-8113 cells [8] = assay: Transwell migration assay; assay type: cell-based; details: 40 μmol/l PTS, 1 h
Procedure: The effect of PTS on the invasive ability of cancer cells is also investigated. Tca-8113 cells were treated with 40 μmol/l PTS or DMSO for 1 h; the effects of PTS on cell migration were determined using a transwell migration assay.

Tca-8113 cells [9] = assay: Transmission electron microscopy of ultrastructural changes; assay type: cell-based; details: 40 μmol/l PTS, 1 h
Procedure: To investigate the mechanisms of PTS-induced cell death, the present invention uses transmission electron microscopy analysis to observe the changes in ultrastructures of Tca-8113 cells. Tca-8113 cells were treated with 40 μmol/l PTS or dimethyl sulfoxide for 1 h. The ultrastructural changes were observed using a transmission electron microscope. […] More secondary lysosomes (pointed by arrow) with high electron density were observed after PTS treatment. Lysosomal instability was proposed to control the fate of cells either through activation of apoptosis or necrosis.

Tca-8113 cells [10] = assay: MTT cell viability assay; assay type: cell-based; details: for suppression ratio (cancer cell suppression %/normal cell suppression %): Tca-8113 vs HGF
Procedure: as §1

Tca-8113 cells [11] = assay type: cell-based; details: human; for intracellular PTS concentration variation between Tca-8113 cells and HGF cells: 10 min
Procedure: Firstly, Tca-8113 were treated with PTS or dimethyl sulfoxide (DMSO) (control vehicle) and then extract the intracellular matrix subjected to high-performance liquid chromatography.
as §3

cathepsin B = assay: Western blot analysis of cleaved cathepsin B; assay type: cell-based; details: Tca-8113 cells, 40 μmol/l PTS, 1 h
Procedure: In the western blot analysis, Tca-8113 cells are analyzed after 40 μmol/l PTS treatment for 1 h.

Tca-8113 cells [12] = assay: Colony formation assay; assay type: cell-based; details: 80 μmol/l PTS
From the text: Colony formation assay shown in FIG. 6 further confirms the cytotoxic effects of PTS on Tca-8113 cells.

[13] = test system: Lysosomes of Tca-8113 cells; assay: Lysosomal integrity assay (LMP), lysosomal β-galactosidase free activity; assay type: biochemical; details: isolated lysosomes of Tca-8113 cells
Procedure: Next, a lysosomal integrity assay (LMP) is performed to assess the effects of PTS on lysosomal membrane integrity. Lysosomes of Tca-8113 cells were isolated using the Percoll gradient centrifugation method. The effects of PTS on lysosomal integrity were assessed by measuring the activity of lysosomal β-galactosidase using UMBG (4-methylumbelliferyl-β-D-galactoside). The 4-methylumbelliferone released was determined by measuring its fluorescence (excitation: 365 nm, emission: 444 nm) on a fluorescence spectrophotometer. The activity of the enzyme measured in the presence and absence of 0.36% Triton X-100 was designated the […], respectively.

[14] = 10 μmol/l for 1 h, MTT 72 h after treatment
[15] = read-out: Viable cells (Annexin V−/PI−)

Cc1ccc(S(N)(=O)=O)cc1 [PTS, para-toluenesulfonamide]
HGF cells suppressed [1, 14]: 10% | inhibitory effects of PTS in HGF cells ([1]; human, 1 h): significantly decreased compared with that in Tca-8113 cells | solubility in water or a water-based solution [2]: not readily dissolved in water or in a water-based solution | morphologic changes (Tca-8113 cells [3]): induce classical apoptotic features including cell shrinkage, nuclear condensation, cell density reduction, and apoptotic body formation | mitochondrial ATP biosynthesis ([4]; 24-48 h): significantly inhibited mitochondrial ATP biosynthesis in a time-dependent manner | ATP biosynthesis attenuated to ([4]; 1 h): 65.8% | cytosolic cytochrome c expression (cytochrome c): significantly induced cytosolic cytochrome c expression | Late apoptotic/necrotic rate (Annexin V+/PI+) (Tca-8113 cells [5]; 40 μmol/l PTS): 11.5% | early apoptotic rate (Annexin V+/PI−) (Tca-8113 cells [5]; 40 μmol/l PTS): 20.2% | Late apoptotic/necrotic rate (Annexin V+/PI+) (Tca-8113 cells [5]; 80 μmol/l PTS): 15.9% | early apoptotic rate (Annexin V+/PI−) (Tca-8113 cells [5]; 80 μmol/l PTS): 64.1% | viability at 40 µM (Tca-8113 cells [5]; [15]): 67.5% | viability at 80 µM (Tca-8113 cells [5]; [15]): 19.8% | intracellular PTS accumulation [6]: significantly inhibited in HGF cells compared with that in Tca-8113 cells | LDH release compared with the control group (Tca-8113 cells [7]): two-fold increase | invasive ability (cell migration) (Tca-8113 cells [8]): significantly reduced the invasive ability of Tca-8113 cells | ultrastructural changes (Tca-8113 cells [9]): shrunk nuclei and an irregular nuclear membrane | Tca-8113 cells suppressed (Tca-8113 cells [10]; [14]): about 50% | suppression ratio (cancer cell suppression %/normal cell suppression %) (Tca-8113 cells [10]; 10 μmol/l): 5 | suppression ratio (cancer cell suppression %/normal cell suppression %) (Tca-8113 cells [10]; 20 μmol/l): 2.6 | suppression ratio (cancer cell suppression %/normal cell suppression %) (Tca-8113 cells [10]; 40 μmol/l): 1.8 | number of viable cells (Tca-8113 cells [10]; 80 μmol/l PTS for 1 h, MTT 72 h after treatment): almost completely suppressed the number of viable cells | suppression ratio (cancer cell suppression %/normal cell suppression %) (Tca-8113 cells [10]; 80 μmol/l): 1.05 | viability of Tca-8113 cells (Tca-8113 cells [10]; 2.5-80 μmol/l PTS for 1 h, MTT 72 h after treatment): significantly reduced the viability of Tca-8113 cells in a dose-dependent manner | intracellular PTS concentration (Tca-8113 cells [11]): increase the intracellular PTS concentration in Tca-8113 cells in a dose dependent manner | intracellular PTS concentration variation between Tca-8113 cells and HGF cells (Tca-8113 cells [11]; 20 μmol/l): 5 × | intracellular PTS concentration variation between Tca-8113 cells and HGF cells (Tca-8113 cells [11]; 40 μmol/l): 8 × | intracellular PTS concentration variation between Tca-8113 cells and HGF cells (Tca-8113 cells [11]; 80 μmol/l): 12 | cleaved cathepsin B expression (cathepsin B): significantly increases cleaved cathepsin B expression | number of viable cells (colony formation) (Tca-8113 cells [12]): almost completely suppressed the number of viable cells | free enzyme activity (lysosomal β-galactosidase) [13]: significantly increase free enzyme activity in a dose-dependent manner
